In patent US4684664A, “Derivatives of β-(4-isocyano-1,2,3,4-diepoxycyclopentyl) acrylic acid” (Kureha Kagaku Kogyo Kabushiki Kaisha, priority 1984, dated 1987):

Legend:
Type in all cases: cell-based
[1] = tested on: Escherichia coli NIHJ-JC-2; test: Antibacterial activity, agar-dilution MIC, organism No. 5; conditions: Escherichia coli, NIHJJC2; Organism No. 5, bouillon-agar; read-out: Minimum Inhibitory Concentration
From the text: (§1) Agar-dilution method was used for determination of the antibacterial activity and antifungal activity while using bouillon-agar culture medium, and the minimum inhibitory concentration of the specimen was expressed by μg/ml of the culture medium.

[2] = tested on: Mycoplasma pneumoniae IID817; test: Antimycoplasmal activity, MIC by phenol red colour change, organism No. 28; conditions: Mycoplasma, IID817; Organism No. 28, PPLO broth + 1% glucose, 37° C.; read-out: Minimum Inhibitory Concentration (MIC)
Method: Mycoplasma pneumoniae IID817 was used as the test microorganism in a culture medium prepared by adding 1% of glucose to "PPLO broth (manufactured by Difco Co.) liquid culture medium" at 37° C. with phenol red as an indicator, thereby culturing the test microorganism.

[3] = tested on: Proteus morganii IFO 3848; test: Antibacterial activity, agar-dilution MIC, organism No. 18; conditions: Morganella morganii, IFO3848; Organism No. 18, bouillon-agar; read-out: Minimum Inhibitory Concentration
From the text: as §1

[4] = tested on: Proteus vulgaris OX-19; test: Antibacterial activity, agar-dilution MIC, organism No. 20; conditions: Proteus vulgaris, OX19; Organism No. 20, bouillon-agar; read-out: Minimum Inhibitory Concentration
From the text: as §1

[5] = tested on: Escherichia coli K12 C600 IAM 1264; test: Antibacterial activity, agar-dilution MIC, organism No. 6; conditions: Escherichia coli, IAM1264; Organism No. 6, bouillon-agar; read-out: Minimum Inhibitory Concentration
From the text: as §1

[6] = tested on: Proteus vulgaris HX-19; test: Antibacterial activity, agar-dilution MIC, organism No. 21; conditions: Proteus vulgaris, HX19; Organism No. 21, bouillon-agar; read-out: Minimum Inhibitory Concentration
From the text: as §1

[7] = tested on: Enterobacter aerogenes ATCC 13048; test: Antibacterial activity, agar-dilution MIC, organism No. 23; conditions: Klebsiella aerogenes, ATCC13048; Organism No. 23, bouillon-agar; read-out: Minimum Inhibitory Concentration
From the text: as §1

[8] = tested on: Micrococcus luteus ATCC 9341; test: Antibacterial activity, agar-dilution MIC, organism No. 25; conditions: Micrococcus luteus, ATCC9341; Organism No. 25, bouillon-agar; read-out: Minimum Inhibitory Concentration
From the text: as §1

[9] = tested on: Pseudomonas aeruginosa IFO 3445; test: Antibacterial activity, agar-dilution MIC, organism No. 15; conditions: Pseudomonas aeruginosa, IFO3445; Organism No. 15, bouillon-agar; read-out: Minimum Inhibitory Concentration
From the text: as §1

[10] = tested on: Proteus mirabilis IFO 3849; test: Antibacterial activity, agar-dilution MIC, organism No. 19; conditions: Proteus mirabilis, IFO3849; Organism No. 19, bouillon-agar; read-out: Minimum Inhibitory Concentration
From the text: as §1

[11] = tested on: Salmonella typhi 901; test: Antibacterial activity, agar-dilution MIC, organism No. 9; conditions: Salmonella enterica, TYPHI, read-out: Minimum Inhibitory Concentration
From the text: as §1

[12] = tested on: Streptococcus faecium IFO 3826; test: Antibacterial activity, agar-dilution MIC, organism No. 27; conditions: Enterococcus faecium, IFO3826; Organism No. 27, bouillon-agar; read-out: Minimum Inhibitory Concentration
From the text: as §1

[13] = tested on: Salmonella typhimurium IID 971; test: Antibacterial activity, agar-dilution MIC, organism No. 8; conditions: Salmonella enterica; Organism No. 8, bouillon-agar; read-out: Minimum Inhibitory Concentration
From the text: as §1

[14] = tested on: Proteus rettgeri IFO 3850; test: Antibacterial activity, agar-dilution MIC, organism No. 22; conditions: Providencia rettgeri, IFO3850; Organism No. 22, bouillon-agar; read-out: Minimum Inhibitory Concentration
From the text: as §1

[15] = tested on: Staphylococcus aureus Terajima; test: Antibacterial activity, agar-dilution MIC, organism No. 2; conditions: Staphylococcus aureus; Organism No. 2, bouillon-agar; read-out: Minimum Inhibitory Concentration
From the text: as §1

[16] = tested on: Bacillus subtilis ATCC 6633; test: Antibacterial activity, agar-dilution MIC, organism No. 14; conditions: Bacillus subtilis, ATCC6633; Organism No. 14, bouillon-agar; read-out: Minimum Inhibitory Concentration
From the text: as §1

[17] = tested on: Salmonella enteritidis G 14; test: Antibacterial activity, agar-dilution MIC, organism No. 12; conditions: Salmonella enterica, ENTERITIDIS; Organism No. 12, bouillon-agar; read-out: Minimum Inhibitory Concentration
From the text: as §1

[18] = tested on: Pseudomonas aeruginosa PAO 1; test: Antibacterial activity, agar-dilution MIC, organism No. 17; conditions: Pseudomonas aeruginosa, PAO1; Organism No. 17, bouillon-agar; read-out: Minimum Inhibitory Concentration
From the text: as §1

[19] = tested on: Aspergillus niger IFO 6342; test: Antifungal activity, agar-dilution MIC, organism No. 30; conditions: Aspergillus niger, IFO6342; Organism No. 30, bouillon-agar; read-out: Minimum Inhibitory Concentration
From the text: as §1

[20] = tested on: Streptococcus pyogenes Cook; test: Antibacterial activity, agar-dilution MIC, organism No. 4; conditions: Streptococcus pyogenes; Organism No. 4, bouillon-agar; read-out: Minimum Inhibitory Concentration
From the text: as §1

[21] = tested on: Enterobacter cloacae 963; test: Antibacterial activity, agar-dilution MIC, organism No. 24; conditions: Enterobacter cloacae, 963; Organism No. 24, bouillon-agar; read-out: Minimum Inhibitory Concentration
From the text: as §1

[22] = tested on: Candida albicans IAM 4905; test: Antifungal activity, agar-dilution MIC, organism No. 29; conditions: Candida albicans, IAM4905; Organism No. 29, bouillon-agar; read-out: Minimum Inhibitory Concentration
From the text: as §1

[23] = tested on: Streptococcus pyogenes IFO 3340; test: Antibacterial activity, agar-dilution MIC, organism No. 26; conditions: Streptococcus pyogenes, IFO3340; Organism No. 26, bouillon-agar; read-out: Minimum Inhibitory Concentration
From the text: as §1

[24] = tested on: Pseudomonas aeruginosa NCTC 10490; test: Antibacterial activity, agar-dilution MIC, organism No. 16; conditions: Pseudomonas aeruginosa, NCTC10490; Organism No. 16, bouillon-agar; read-out: Minimum Inhibitory Concentration
From the text: as §1

[25] = tested on: Klebsiella pneumoniae PCI-602; test: Antibacterial activity, agar-dilution MIC, organism No. 7; conditions: Klebsiella pneumoniae, PCI602; Organism No. 7, bouillon-agar; read-out: Minimum Inhibitory Concentration
From the text: as §1

[26] = tested on: Salmonella shottmuelleri 8006; test: Antibacterial activity, agar-dilution MIC, organism No. 11; conditions: Salmonella, 8006; Organism No. 11, bouillon-agar; read-out: Minimum Inhibitory Concentration
From the text: as §1

[27] = tested on: Staphylococcus aureus MS 353; test: Antibacterial activity, agar-dilution MIC, organism No. 3; conditions: Staphylococcus aureus, MS353; Organism No. 3, bouillon-agar; read-out: Minimum Inhibitory Concentration
From the text: as §1

[28] = tested on: Staphylococcus aureus FDA 209PJc-1; test: Antibacterial activity, agar-dilution MIC, organism No. 1; conditions: Staphylococcus aureus, FDA209PJC1; Organism No. 1, bouillon-agar; read-out: Minimum Inhibitory Concentration
From the text: as §1

[29] = tested on: Salmonella paratyphi-A 1015; test: Antibacterial activity, agar-dilution MIC, organism No. 10; conditions: Salmonella enterica, PARATYPHI, read-out: Minimum Inhibitory Concentration
From the text: as §1

Measured: MIC

[C-]#[N+]C12CC3(/C=C/C(=O)NC4C(=O)N5C4SC(C)(C)C5C(=O)OCC(=O)c4ccc(Br)cc4)OC3C1O2 (stereo not drawn) [Compound No. 33]
3.13 µg/mL: [8] | [11] | [19]
12.5 µg/mL: [13]
0.78 µg/mL: [15] | [16] | [20]
> 100 µg/mL: [7] | [14]
> 200 µg/mL: [3] | [9] | [10] | [18] | [24]
25 µg/mL: [1] | [5] | [21] | [25]
1.56 µg/mL: [6] | [17] | [22] | [27] | [28]
100 µg/mL: [4]
< 0.2 µg/mL: [2]
0.8 µg/mL: [12] | [23]
0.38 µg/mL: [26] | [29]

[C-]#[N+]C12CC3(/C=C/C(=O)N[C@@H](Cc4ccccc4)C(=O)OCc4ccccc4)OC3C1O2 (stereo partly drawn) [compound 31]
> 100 µg/mL: [2] | [19] | [22]
> 200 µg/mL: [1] | [3] | [4] | [5] | [6] | [7] | [9] | [10] | [11] | [12] | [13] | [14] | [15] | [16] | [17] | [18] | [20] | [21] | [23] | [24] | [25] | [26] | [27] | [28] | [29]
6.25 µg/mL: [8]

[C-]#[N+]C12CC3(/C=C/C(=O)Nc4cccc(C)c4)OC3C1O2 (stereo not drawn) [compound 38]
0.39 µg/mL: [23]
12.5 µg/mL: [1] | [3] | [5] | [12]
> 200 µg/mL: [7] | [9] | [10] | [18] | [21] | [24]
0.05 µg/mL: [4] | [6]
1.56 µg/mL: [11] | [17] | [19]
< 0.2 µg/mL: [2]
0.78 µg/mL: [22]
< 0.05 µg/mL: [8] | [25] | [26] | [27] | [28] | [29]
0.1 µg/mL: [15]
6.25 µg/mL: [13] | [20]
3.13 µg/mL: [14] | [16]
